Test results taken from the supplement of paper PMC13380429.
± gives the standard deviation of the averaged measurements.

Experiments:
Conditions in all cases: 72 h
Calu-3 [1] = experiment: relative viability EC50 (midpoint between 100% and the lowest measured viability); higher = less toxic
Caco-2 [2] = experiment: as above
Vero E6 [3] = experiment: as above
HepG2 [4] = experiment: as above
U2OS [5] = experiment: as above
Calu-3 [6] = experiment: cell viability relative to DMSO; higher = less toxic
Caco-2 [7] = experiment: as above
Vero E6 [8] = experiment: as above
HepG2 [9] = experiment: as above
U2OS [10] = experiment: as above
Calu-3 [11] = experiment: drug sensitivity score (DSS) for viability; higher = more toxic; extreme values may be limits of the assay
Caco-2 [12] = experiment: as above
Vero E6 [13] = experiment: as above
HepG2 [14] = experiment: as above
U2OS [15] = experiment: as above

Row | SMILES | relative viability EC50 (Calu-3 [1]) [µM] | relative viability EC50 (Caco-2 [2]) [µM] | relative viability EC50 (Vero E6 [3]) [µM] | relative viability EC50 (HepG2 [4]) [µM] | relative viability EC50 (U2OS [5]) [µM] | cell viability (Calu-3 [6]; 1 nM) [%] | cell viability (Calu-3 [6]; 10 nM) [%] | cell viability (Calu-3 [6]; 100 nM) [%] | cell viability (Calu-3 [6]; 1000 nM) [%] | cell viability (Calu-3 [6]; 10000 nM) [%] | cell viability (Caco-2 [7]; 1 nM) [%] | cell viability (Caco-2 [7]; 10 nM) [%] | cell viability (Caco-2 [7]; 100 nM) [%] | cell viability (Caco-2 [7]; 1000 nM) [%] | cell viability (Caco-2 [7]; 10000 nM) [%] | cell viability (Vero E6 [8]; 1 nM) [%] | cell viability (Vero E6 [8]; 10 nM) [%] | cell viability (Vero E6 [8]; 100 nM) [%] | cell viability (Vero E6 [8]; 1000 nM) [%] | cell viability (Vero E6 [8]; 10000 nM) [%] | cell viability (HepG2 [9]; 1 nM) [%] | cell viability (HepG2 [9]; 10 nM) [%] | cell viability (HepG2 [9]; 100 nM) [%] | cell viability (HepG2 [9]; 1000 nM) [%] | cell viability (HepG2 [9]; 10000 nM) [%] | cell viability (U2OS [10]; 1 nM) [%] | cell viability (U2OS [10]; 10 nM) [%] | cell viability (U2OS [10]; 100 nM) [%] | cell viability (U2OS [10]; 1000 nM) [%] | cell viability (U2OS [10]; 10000 nM) [%] | drug sensitivity score (Calu-3 [11]) | drug sensitivity score (Caco-2 [12]) | drug sensitivity score (Vero E6 [13]) | drug sensitivity score (HepG2 [14]) | drug sensitivity score (U2OS [15])
1 | COC(=O)C1=C(C)NC(C)=C(C(=O)OCCCN2CCC(c3ccccc3)(c3ccccc3)CC2)[C@@H]1c1cccc([N+](=O)[O-])c1 [dexniguldipine] | 3.03 | 2.01 | 2.39 | 3.26 | 2.61 | 103.7 ± 0.42 | 94 ± 2.3 | 104.1 ± 0.71 | 99.2 ± 7.6 | 15.8 ± 14 | 99.8 ± 0.28 | 100 ± 0.71 | 97.7 ± 7.6 | 91.4 ± 0.42 | 40.8 ± 7.7 | 94 ± 1.9 | 99.7 ± 2.5 | 95 ± 3.6 | 94.35 ± 0.92 | 39.5 ± 2.3 | 102 ± 14 | 101 ± 3.4 | 94.7 ± 3.8 | 102 ± 3 | 16.8 ± 2 | 102 ± 2.6 | 102 ± 2.5 | 100.8 ± 0.21 | 94.3 ± 7.8 | 20.8 ± 17 | 4.95 ± 1.8 | 4.65 ± 0.49 | 4.2 | 4.5 ± 0.14 | 5.3 ± 2.3
2 | O=C(NC(O)C(Cl)(Cl)Cl)NC(O)C(Cl)(Cl)Cl (stereo not given) [dicloralurea] | > 10 | > 10 | > 10 | > 10 | > 10 | 94.1 | 96.2 | 102 | 86.9 | 99.5 | 96.6 | 114 | 111 | 102 | 90.1 | 97.6 | 101 | 95.2 | 92.4 | 103 | 96.2 | 107 | 109 | 104 | 97.4 | 97 | 92.4 | 97.6 | 94.4 | 103 | 0 | 0 | 0 | 0 | 0
3 | C[C@@H]1CC[C@@]2(OC1)O[C@H]1C[C@H]3[C@@H]4CC=C5C[C@@H](O)CC[C@]5(C)[C@H]4CC[C@]3(C)[C@H]1[C@@H]2C [diosgenin] | > 10 | > 10 | > 10 | > 10 | > 10 | 96.8 | 91.3 | 84.2 | 95.4 | 95.4 | 105 | 97.9 | 101 | 94.5 | 101 | 102 | 107 | 102 | 103 | 98.1 | 101 | 105 | 98.8 | 102 | 106 | 95.9 | 99.1 | 101 | 99.9 | 98.1 | 0 | 0 | 0 | 0 | 0
4 | CCCCCCCCCCCCOS(=O)(=O)O [dodecyl-sulfate] | > 10 | > 10 | > 10 | > 10 | > 10 | 106 ± 17 | 94.5 ± 9 | 103 ± 4.2 | 90.5 ± 6.3 | 106 ± 3.5 | 101 ± 8.6 | 99.5 ± 16 | 102 ± 3.1 | 99.2 ± 3.1 | 106 ± 27 | 100 ± 5.2 | 102 ± 7.9 | 95.7 ± 5.3 | 104 ± 1.7 | 101 ± 6.7 | 106 ± 15 | 106 ± 12 | 102 ± 7 | 99.6 ± 5.7 | 92.1 ± 3.1 | 100 ± 4.9 | 93.5 ± 0.28 | 102 ± 4 | 91.7 ± 0.28 | 100 ± 4.6 | 0 | 0.05 ± 0.071 | 0 | 0 | 0
5 | COc1cc2c(cc1OC)CN(CCc1ccc(NC(=O)c3cccc4c(=O)c5cccc(OC)c5[nH]c34)cc1)CC2 [elacridar] | > 10 | > 10 | > 10 | > 10 | > 10 | 98.9 | 94.3 | 99.6 | 101 | 89 | 97.3 | 91.6 | 92.2 | 95.5 | 88.3 | 97 | 94.8 | 98.7 | 93.5 | 103 | 99.6 | 107 | 101 | 96.6 | 97.9 | 96.5 | 99.3 | 99.2 | 100 | 99.8 | 0 | 0 | 0 | 0 | 0
6 | O=C(Cn1ccnc1[N+](=O)[O-])NCCO [etanidazole] | > 10 | > 10 | > 10 | > 10 | > 10 | 98.8 | 92.4 | 94 | 98.1 | 107 | 100 | 94.1 | 95.9 | 91.5 | 92.7 | 103 | 104 | 106 | 101 | 97.7 | 98.7 | 106 | 92.3 | 101 | 88.8 | 101 | 97.1 | 102 | 99.1 | 102 | 0 | 0 | 0 | 0 | 0
7 | CC[C@@H](CO)NCCN[C@@H](CC)CO [ethambutol] | > 10 | > 10 | > 10 | > 10 | > 10 | 98.9 | 88.7 | 96 | 90.4 | 96.7 | 99.1 | 92.3 | 97.6 | 102 | 104 | 92.3 | 98.2 | 90.8 | 99.1 | 102 | 93.3 | 108 | 90.3 | 95.2 | 98.7 | 103 | 98 | 103 | 96.5 | 99.3 | 0 | 0 | 0 | 0 | 0
8 | CCNCC(O)c1cccc(O)c1 (stereo not given) [etilefrine] | > 10 | > 10 | > 10 | > 10 | > 10 | 99.2 | 102 | 98.9 | 102 | 104 | 92.1 | 105 | 93 | 99.7 | 104 | 97.1 | 93.6 | 98.3 | 96.4 | 99.6 | 95.2 | 87.3 | 89 | 93 | 104 | 98.9 | 103 | 98.1 | 98.9 | 95.7 | 0 | 0 | 0 | 0 | 0
9 | CCOC(=O)[C@@]1(CCCCCCOc2ccc(Cl)cc2)CO1 [etomoxir] | > 10 | > 10 | > 10 | > 10 | > 10 | 106 | 114 | 98.2 | 117 | 110 | 92.6 | 97.6 | 98.2 | 98 | 85.6 | 113 | 106 | 110 | 104 | 98.1 | 115 | 106 | 101 | 108 | 91.7 | 105 | 102 | 104 | 103 | 97.7 | 0 | 0.4 | 0 | 0 | 0
10 | COCCCC/C(=N\OCCN)c1ccc(C(F)(F)F)cc1 [fluvoxamine] | > 10 | > 10 | > 10 | > 10 | > 10 | 102 | 109 | 95.6 | 96.5 | 93.7 | 124 | 109 | 84.3 | 80.6 | 94.1 | 91.6 | 103 | 98.1 | 101 | 88 | 99.3 | 93.5 | 100 | 105 | 100 | 104 | 97.3 | 98 | 96.4 | 98.5 | 0 | 4 | 0 | 0 | 0
11 | C[C@@H](O[C@H]1OCCN(Cc2nn(P(=O)(O)O)c(=O)[nH]2)[C@H]1c1ccc(F)cc1)c1cc(C(F)(F)F)cc(C(F)(F)F)c1 [fosaprepitant-dimeglumine] | > 10 | > 10 | > 10 | > 10 | > 10 | 99.7 | 93.8 | 102 | 93.8 | 108 | 98.4 | 95.1 | 93.2 | 102 | 90.8 | 92.5 | 97.3 | 97.9 | 99.6 | 99.7 | 93.6 | 93.4 | 88.7 | 91.9 | 89.6 | 98.6 | 103 | 95.4 | 96.1 | 86.4 | 0 | 0 | 0 | 0.1 | 0.1
12 | CC(OC(=O)NCC1(CC(=O)O)CCCCC1)OC(=O)C(C)C (stereo not given) [gabapentin-enacarbil] | > 10 | > 10 | > 10 | > 10 | > 10 | 103 | 96.3 | 106 | 104 | 89 | 105 | 87.2 | 106 | 110 | 104 | 83.4 | 97.8 | 84.2 | 107 | 106 | 101 | 93.8 | 94.7 | 90.1 | 89.4 | 101 | 96.5 | 102 | 94 | 102 | 0 | 0 | 0 | 0 | 0
13 | Oc1noc2c1CCNC2 [gaboxadol] | > 10 | > 10 | > 10 | > 10 | > 10 | 99.7 | 91.4 | 103 | 103 | 99.4 | 92.6 | 99 | 91.6 | 104 | 95.3 | 96.6 | 95.8 | 96.2 | 94.6 | 106 | 105 | 101 | 88.2 | 101 | 98.1 | 102 | 100 | 94.3 | 98.3 | 94.2 | 0 | 0 | 0 | 0 | 0
14 | C[C@H](N)Cc1cccc(O)c1 [gepefrine] | > 10 | > 10 | > 10 | > 10 | > 10 | 93.4 | 100 | 102 | 99.7 | 88.7 | 91.3 | 104 | 88 | 99.1 | 111 | 99.7 | 96 | 98.1 | 101 | 111 | 103 | 97.2 | 96.8 | 104 | 109 | 88 | 93.9 | 90.3 | 95 | 103 | 0 | 0 | 0 | 0 | 0
